# Key:
# [1] = Sub-acute toxicity in albino Wistar rat assessed as change in Urea level at 10 mg/kg, po administered for 28 days measured post last dose (reference value: 24.54 +/- 2.12 mg/dl); format: organism-based; details: in vivo, 672 h
# [2] = Sub-acute toxicity in albino Wistar rat assessed as change in hemoglobin level at 2.5 mg/kg, po administered for 28 days measured post last dose (reference value: 12.14 +/- 1.45 g%); format: organism-based; details: in vivo, 672 h
# [3] = Sub-acute toxicity in albino Wistar rat assessed as change in serum protein level at 2.5 mg/kg, po administered for 28 days measured post last dose (reference value: […]); format: organism-based; details: in vivo, 672 h
# [4] = Sub-acute toxicity in albino Wistar rat assessed as effect on food intake at 1.25 to 10 mg/kg, po administered for 28 days measured post last dose; format: organism-based; details: in vivo, 672 h
# [5] = Sub-acute toxicity in albino Wistar rat assessed as change in CAT level per mg protein at 10 mg/kg, po administered for 28 days measured post last dose (reference value: 28.45 +/- 2.1 U); format: organism-based; details: in vivo, 672 h
# [6] = Sub-acute toxicity in albino Wistar rat assessed as change in SOD level per mg protein at 10 mg/kg, po administered for 28 days measured post last dose (reference value: 4.85 +/- 0.34 U); format: organism-based; details: in vivo, 672 h
# [7] = Sub-acute toxicity in albino Wistar rat assessed as change in Urea level at 5 mg/kg, po administered for 28 days measured post last dose (reference value: 24.54 +/- 2.12 mg/dl); format: organism-based; details: in vivo, 672 h
# [8] = Sub-acute toxicity in albino Wistar rat assessed as change in AST level at 1.25 mg/kg, po administered for 28 days measured post last dose (reference value: 22.5 +/- 1.76 U/L); format: organism-based; details: in vivo, 672 h
# [9] = Sub-acute toxicity in albino Wistar rat assessed as change in MDA level per mg protein at 5 mg/kg, po administered for 28 days measured post last dose (reference value: 0.91 +/- 0.1 nmol); format: organism-based; details: in vivo, 672 h
# [10] = Sub-acute toxicity in albino Wistar rat assessed as effect on behavioral changes at 1.25 to 10 mg/kg, po administered for 28 days; format: organism-based; details: in vivo, 672 h
# [11] = Sub-acute toxicity in albino Wistar rat assessed as change in MDA level per mg protein at 10 mg/kg, po administered for 28 days measured post last dose (reference value: 0.91 +/- 0.1 nmol); format: organism-based; details: in vivo, 672 h
# [12] = Sub-acute toxicity in albino Wistar rat assessed as effect on clinical changes at 1.25 to 10 mg/kg, po administered for 28 days; format: organism-based; details: in vivo, 672 h
# [13] = Sub-acute toxicity in albino Wistar rat assessed as change in ALT level at 5 mg/kg, po administered for 28 days measured post last dose (reference value: 12.19 +/- 1.78 U/L); format: organism-based; details: in vivo, 672 h
# [14] = Sub-acute toxicity in albino Wistar rat assessed as change in serum protein level at 1.25 mg/kg, po administered for 28 days measured post last dose (reference value: […]); format: organism-based; details: in vivo, 672 h
# [15] = Sub-acute toxicity in albino Wistar rat assessed as change in ALT level at 1.25 mg/kg, po administered for 28 days measured post last dose (reference value: 12.19 +/- 1.78 U/L); format: organism-based; details: in vivo, 672 h
# Dihydrofolate reductase [16] = biological target: T1, Dihydrofolate reductase (Mycobacterium tuberculosis, UniProt P9WNX1); test: Inhibition of Mycobacterium tuberculosis H37Rv DHFR expressed in Escherichia coli BL21(DE3) assessed as reduction in consumption of NADPH using DHF as substrate preincubated for 1 min followed by DHF addition and measured for 2 mins by spectrophotometric method
# T1 sequence (P9WNX1 whole entry): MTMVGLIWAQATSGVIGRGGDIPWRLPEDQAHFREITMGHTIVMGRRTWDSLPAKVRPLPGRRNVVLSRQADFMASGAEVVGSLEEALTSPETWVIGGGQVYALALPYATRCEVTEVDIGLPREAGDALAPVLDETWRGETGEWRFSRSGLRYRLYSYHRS
# [17] = Sub-acute toxicity in albino Wistar rat assessed as mortality at 1.25 to 10 mg/kg, po administered for 28 days; format: organism-based; details: in vivo, 672 h
# Dihydrofolate reductase [18] = biological target: T2, Dihydrofolate reductase (Homo sapiens, UniProt P00374); test: Inhibition of human DHFR assessed as reduction in consumption of NADPH using DHF as substrate preincubated for 1 min followed by DHF addition and measured for 2 mins by spectrophotometric method
# T2 sequence (P00374 whole entry): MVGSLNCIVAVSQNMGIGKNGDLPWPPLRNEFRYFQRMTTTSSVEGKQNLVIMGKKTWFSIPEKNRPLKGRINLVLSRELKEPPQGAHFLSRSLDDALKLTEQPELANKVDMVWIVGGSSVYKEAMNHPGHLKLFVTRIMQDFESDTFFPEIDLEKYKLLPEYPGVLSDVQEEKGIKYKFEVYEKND
# [19] = Sub-acute toxicity in albino Wistar rat assessed as effect on water intake at 1.25 to 10 mg/kg, po administered for 28 days measured post last dose; format: organism-based; details: in vivo, 672 h
# [20] = Sub-acute toxicity in albino Wistar rat assessed as change in hemoglobin level at 1.25 mg/kg, po administered for 28 days measured post last dose (reference value: 12.14 +/- 1.45 g%); format: organism-based; details: in vivo, 672 h
# [21] = Sub-acute toxicity in albino Wistar rat assessed as effect on neurological changes at 1.25 to 10 mg/kg, po administered for 28 days; format: organism-based; details: in vivo, 672 h
# [22] = Sub-acute toxicity in albino Wistar rat assessed as change in AST level at 10 mg/kg, po administered for 28 days measured post last dose (reference value: 25 +/- 1.76 U/L); format: organism-based; details: in vivo, 672 h
compound,measurement,setting,value
CC(=O)c1c(C)n(Cc2ccccc2)c2ccc(OCc3cn(-c4ccc(Br)cc4)nn3)cc12,Activity,[1],27.54 mg/dL
same,Activity,[2],12.83 g%
same,Activity,[3],7.32 mg/dL
same,Activity,[4],Non-Toxic
same,Activity,[5],32.45 U
same,Activity,[6],5.56 U
same,Activity,[7],26.43 mg/dL
same,Activity,[8],23.43 U/L
same,Activity,[9],1.11 nmol
same,Activity,[10],Non-Toxic
same,Activity,[11],1.23 nmol
same,Activity,[12],Non-Toxic
same,Activity,[13],14.32 U/L
same,Activity,[14],6.65 mg/dL
same,Activity,[15],13.09 U/L
same,IC50,Dihydrofolate reductase [16],6.79 µM
same,Activity,[17],Non-Toxic
same,IC50,Dihydrofolate reductase [18],125 µM
same,Activity,[19],Non-Toxic
same,Activity,[20],12.12 g%
same,Activity,[21],Non-Toxic
same,Activity,[22],26.98 U/L

# Reference: ChEMBL document CHEMBL4480432, “Expansion of a novel lead targeting M. tuberculosis DHFR as antitubercular agents” (Bioorg Med Chem, 2019)
